From the NIST ThermoML archive (doi:10.1021/acs.jced.6b00542)

Legend:
[1] = for speed of sound: 100 kPa, Frequency=3 MHz, Sing-around technique in a fixed-path interferometer; for speed of sound / viscosity / mass density: Liquid; for viscosity / mass density: 102 kPa; for viscosity: Concentric cylinders viscometry; for mass density: Vibrating tube method; for surface tension liquid-gas: Pendant drop shape
[2] = xn = mol fraction of the nth substance listed; conditions: Liquid; for speed of sound: 100 kPa, Frequency=3 MHz, Sing-around technique in a fixed-path interferometer; for viscosity / mass density: 102 kPa; for viscosity: Concentric cylinders viscometry; for mass density: Vibrating tube method

CCCCCCCCCCCC [dodecane]
[1]
Conditions	mass density [kg/m3]	speed of sound [m/s]	surface tension liquid-gas [mN/m]	viscosity [mPa·s]
293.15 K	748.79	1297.9	–	1.47
294.1 K	–	–	25.1	–
303.15 K	741.54	1259.6	–	1.24
313.15 K	734.25	1221.9	–	1.06
323.15 K	726.94	1184.7	–	0.916
333.15 K	719.59	1148	–	0.801
343.15 K	712.2	–	–	0.706
353.15 K	704.7	–	–	0.627
363.15 K	697.2	–	–	0.562
373.15 K	689.6	–	–	0.506

CCCCCCCCCCCCCC [tetradecane]
[1]
Conditions	mass density [kg/m3]	speed of sound [m/s]	surface tension liquid-gas [mN/m]	viscosity [mPa·s]
293.15 K	762.71	1331.2	–	2.3
294.6 K	–	–	26.2	–
303.15 K	755.65	1293.6	–	1.88
313.15 K	748.58	1256.4	–	1.56
323.15 K	741.5	1220.1	–	1.32
333.15 K	734.4	1184.1	–	1.13
343.15 K	727.5	–	–	0.98
353.15 K	720.3	–	–	0.858
363.15 K	713.1	–	–	0.76
373.15 K	705.8	–	–	0.679

CCCCCCCCCCCCCCCC [hexadecane]
[1]
Conditions	mass density [kg/m3]	speed of sound [m/s]	surface tension liquid-gas [mN/m]	viscosity [mPa·s]
293.15 K	773.52	1357.3	–	3.45
294.8 K	–	–	27.4	–
303.15 K	766.58	1320	–	2.74
313.15 K	759.66	1283.4	–	2.22
323.15 K	752.74	1247.5	–	1.84
333.15 K	745.82	1212.1	–	1.55
343.15 K	738.8	–	–	1.32
353.15 K	731.9	–	–	1.14
363.15 K	724.9	–	–	1
373.15 K	717.8	–	–	0.887

CCCCc1ccccc1 [butylbenzene] + CCCCCCCCCCCCCCCCC
[2], x1 = 1
Conditions	mass density [kg/m3]	speed of sound [m/s]	viscosity [mPa·s]
303.15 K	852.49	1314.9	0.91
313.15 K	844.43	1276.6	0.801
323.15 K	836.34	1238.7	0.713
333.15 K	828.21	1201.4	0.636
343.15 K	819.9	–	0.571
353.15 K	811.7	–	0.516
363.15 K	803.4	–	0.469
373.15 K	795	–	0.43

CCCCCCCCCCCC [dodecane] + CCCCc1ccccc1
[2], x2 = 0
Conditions	mass density [kg/m3]	speed of sound [m/s]	viscosity [mPa·s]
293.15 K	748.79	1297.9	1.47
303.15 K	741.54	1259.6	1.24
313.15 K	734.25	1221.9	1.06
323.15 K	726.94	1184.7	0.916
333.15 K	719.59	1148	0.801
343.15 K	712.2	–	0.706
353.15 K	704.7	–	0.627
363.15 K	697.2	–	0.562
373.15 K	689.6	–	0.506

CCCCCCCCCC [decane] + CCCCc1ccccc1
[2], x2 = 0
Conditions	mass density [kg/m3]	speed of sound [m/s]	viscosity [mPa·s]
293.15 K	729.88	1253.8	0.922
303.15 K	722.31	1214.5	0.794
313.15 K	714.69	1175.7	0.693
323.15 K	707.02	1137.3	0.615
333.15 K	699.29	1099.3	0.545
343.15 K	691.5	–	0.486
353.15 K	683.6	–	0.436
363.15 K	675.6	–	0.396
373.15 K	667.5	–	0.362

CCCCc1ccccc1 [butylbenzene]
[1]
Conditions	mass density [kg/m3]	speed of sound [m/s]	surface tension liquid-gas [mN/m]	viscosity [mPa·s]
293.15 K	860.51	1353.7	–	1.05
294.2 K	–	–	29.1	–
303.15 K	852.49	1314.9	–	0.91
313.15 K	844.43	1276.6	–	0.801
323.15 K	836.34	1238.7	–	0.713
333.15 K	828.21	1201.4	–	0.636
343.15 K	819.9	–	–	0.571
353.15 K	811.7	–	–	0.516
363.15 K	803.4	–	–	0.469
373.15 K	795	–	–	0.43

CCCCCCCCCC [decane]
[1]
Conditions	mass density [kg/m3]	speed of sound [m/s]	surface tension liquid-gas [mN/m]	viscosity [mPa·s]
293.15 K	729.88	1253.8	–	0.922
294.6 K	–	–	23.8	–
303.15 K	722.31	1214.5	–	0.794
313.15 K	714.69	1175.7	–	0.693
323.15 K	707.02	1137.3	–	0.615
333.15 K	699.29	1099.3	–	0.545
343.15 K	691.5	–	–	0.486
353.15 K	683.6	–	–	0.436
363.15 K	675.6	–	–	0.396
373.15 K	667.5	–	–	0.362

CCCCCCCCCCCCCCCC [hexadecane] + CCCCc1ccccc1
[2], x2 = 0
Conditions	mass density [kg/m3]	speed of sound [m/s]	viscosity [mPa·s]
293.15 K	773.52	1357.3	3.45
303.15 K	766.58	1320	2.74
313.15 K	759.66	1283.4	2.22
323.15 K	752.74	1247.5	1.84
333.15 K	745.82	1212.1	1.55
343.15 K	738.8	–	1.32
353.15 K	731.9	–	1.14
363.15 K	724.9	–	1
373.15 K	717.8	–	0.887

CCCCCCCCCCCCCC [tetradecane] + CCCCc1ccccc1
[2], x2 = 0
Conditions	mass density [kg/m3]	speed of sound [m/s]	viscosity [mPa·s]
293.15 K	762.71	1331.2	2.3
303.15 K	755.65	1293.6	1.88
313.15 K	748.58	1256.4	1.56
323.15 K	741.5	1220.1	1.32
333.15 K	734.4	1184.1	1.13
343.15 K	727.5	–	0.98
353.15 K	720.3	–	0.858
363.15 K	713.1	–	0.76
373.15 K	705.8	–	0.679

CCCCCCCCCCCCCCCCC [heptadecane]
[1]
Conditions	mass density [kg/m3]	speed of sound [m/s]	viscosity [mPa·s]
303.15 K	771.02	1330.9	3.25
313.15 K	764.16	1294.5	2.61
323.15 K	757.3	1258.8	2.14
333.15 K	750.45	1223.8	1.79
343.15 K	743.7	–	1.52
353.15 K	736.8	–	1.3
363.15 K	729.8	–	1.14
373.15 K	723	–	1
